Earlier results on 23 molecules are cited in patent US20230081296A1, “STABLE NON-AQUEOUS COMPOSITIONS OF PLANTS EXTRACTS AND METHODS OF MAKING THE SAME” (Nulixir Inc., priority 2021, published 2023).

The conditions of the data set: reference phases water and n-octanol; categorization assumed at pH = 7 unless stated otherwise.
As to `COc1cc2c(c(OC)c1OC)-c1c(cc3c(c1OC)OCO3)CC(C)C(C)C2` (single isomer, unassigned; (-)) [(-)-schisandrin B], the log partition coefficient (logP) is on record as about 4.

As to `COc1cc(/C=C/c2ccccc2)oc(=O)c1` [5,6-dehydrokawain], the logP was about 2.9.

As to `COC1=CC(=O)OC(/C=C/c2ccc(OC)cc2)C1` (centres unmarked) [5,6-dihydroyangonin], the logP was about 2.5.

Regarding `CC1=C(CO)C(=O)O[C@@H]([C@@H](C)[C@H]2CC[C@H]3[C@@H]4C[C@H](Cl)[C@]5(O)[C@@H](O)C=CC(=O)[C@]5(C)[C@H]4CC[C@]23C)C1` [6a-chloro-5b-hydroxywithaferin A], the logP was about 3.2.

As to `COC1=CC(=O)O[C@@H](CCc2ccc3c(c2)OCO3)C1` [7,8-dihydromethysticin], the logP is given as about 2.2.

On to `COc1ccc(CCc2cc(OC)cc(=O)o2)cc1` [7,8-dihydroyangonin], for which the logP is on record as about 2.9.

As to `COc1cc(/C=C\c2ccc(OC)c(O)c2)oc(=O)c1` [11-hydroxyyangonin], the logP was about 2.2.

Turning to `COc1cc2c(c(OC)c1OC)-c1c(cc(OC)c(OC)c1OC)C[C@](C)(O)[C@@H](C)C2` [(+)-schisandrin], the logP was about 5.

Regarding `COc1cc2c(c(OC)c1OC)-c1c(cc(OC)c(OC)c1OC)C[C@H](C)[C@H](C)C2` [(-)-schisandrin A], the logP is given as about 3.6.

As to `CC(/C=C/C=C(\C)C(=O)O[C@@H]1O[C@H](CO[C@@H]2O[C@H](CO)[C@@H](O)[C@H](O)[C@H]2O)[C@@H](O)[C@H](O)[C@H]1O)=C\C=C\C=C(C)\C=C\C=C(/C)C(=O)O[C@@H]1O[C@H](CO[C@@H]2O[C@H](CO)[C@@H](O)[C@H](O)[C@H]2O)[C@@H](O)[C@H](O)[C@H]1O` [alpha -crocin], the logP is about -1.5.

For the molecule `COc1ccc([C@@]23CCC(=O)C[C@@H]2N(C)CC3)cc1OC` [mesembrine], the logP was about 1.5.

Take `COc1nc2c(c(=O)n1C)n(C)c(=O)n2C` [methylliberine]: the logP is about -0.083.

Consider `CC(=O)OC1C=CC(=O)N(C(=O)CCc2ccccc2)C1` (centres unmarked) [pipermethystine], for which the logP was about 1.8.

In the case of `COc1cc([C@H]2Oc3cc(O)c4c(=O)c(O)c(-c5ccc(O)cc5)oc4c3O[C@@H]2CO)ccc1O` [rhodiolin], the logP is on record as about 2.

Take `COc1cc2c(c(OC)c1OC)-c1c(cc(OC)c(OC)c1OC)C[C@](C)(O)[C@@H](C)C2` [schisandrol A]: the logP was about 3.4.

As to `N#C[C@@]1(O[C@@H]2O[C@H](CO)[C@@H](O)[C@H](O)[C@H]2O)C=C[C@@H](O)C1` [tetraphyllin B], the logP is given as about -2.5.

As to (-)-schisandrin C, the logP is given as about 3.5.

Consider (R)-kawain, for which the logP is on record as about 2.7.

For the molecule bacopaside B, the logP is on record as about 2.8.

Take hericerin: the logP is reported as about 6.4.

Regarding herinacine A, the logP was about 2.5.

In the case of schisandroside C, the logP was about 1.6.

Regarding tortuosomine, the logP was about 3.

Usually logP stands for a log measure of how a compound divides between an organic and an aqueous phase.
